Results taken from patent US20070053918A1, “Injectable depots consisting of liposomal aggregates for the delivery of active substances” (NOVOSOM AG, priority 2003, published 2007).

Tests used:
[1] = Inclusion of leuprolide acetate in liposomes (ultracentrifugation, RP-HPLC); assay type: physicochemical; conditions: formulation L1 DPPC/DPPG/Chol liposomes, 100 mM lipid, extrusion 400 nm
Experimental: is dissolved in chloroform at 50° C. and subsequently dried completely in vacuum in a rotary evaporator. The lipid film is added with leuprolide acetate solution (2.5 mg/ml in 10 mM HEPES, 150 mM NaCl, pH 6) in an amount so as to form a 100 mM suspension. Subsequently, this suspension is hydrated in a water bath at 50° C for 45 minutes with agitating. Thereafter, the suspension is frozen. This is followed by 3 additional cycles of freezing and thawing.
Following final thawing, the liposomes are subjected to multiple extrusions through a membrane having a pore width of 400 nm (Avestin LiposoFast, polycarbonate membrane with a pore width of 400 nm).
Following removal of free leuprolide acetate, the percentage of entrapped leuprolide acetate is determined by means of triple sedimentation in an ultracentrifuge at 60,000×g for 45 minutes. The leuprolide acetate is determined following extraction with CHCl3 and CH3OH, using RP-HPLC. Inclusion rates of about 15% leuprolide acetate are found.

[2] = Inclusion of insulin in liposomes (ELISA after liberation from liposomes); assay type: physicochemical; conditions: DPPC/DPPG/Chol 50:10:40 liposomes, 50 mM lipid, extrusion 200 or 400 nm
Experimental: A mixture of 50 mole-% DPPC, 10 mole-% DPPG and 40 mole-% Chol is dissolved in chloroform at 50° C. and subsequently dried completely in vacuum in a rotary evaporator. The lipid film is added with human insulin solution (recombinant insulin; 7.5 mg/ml insulin in 10 mM glycine-HCl, 300 mM sucrose, pH 3) in an amount so as to form a 50 mM suspension. Subsequently, this suspension is hydrated in a water bath at 50° C. for 45 minutes by agitating and treated in an ultrasonic bath for another 5 minutes. Thereafter, the suspension is frozen. This is followed by 3 cycles of freezing and thawing, each thawing being followed by a 5 minute treatment in the ultrasonic bath.
Following final thawing, the liposomes are subjected to multiple extrusions through a membrane having a pore width of 200 nm or 400 nm (Avestin LiposoFast, polycarbonate membrane with a pore width of 200 or 400 nm). Following extrusion, the resulting suspension is rebuffered by adding a solutions of HEPES, pH 7.5, and NaCl. After filtration of the liposomes through […], non-entrapped insulin is removed by gel filtration (S-200 column, Pharmacia) . Following liberation from the liposomes, the amount of entrapped insulin is determined by means of an ELISA (DRG-ELISA Kit). Inclusion rates of 50-70% insulin are found.

Inclusion rate of leuprolide acetate [1] | Compound | Inclusion rate of insulin [2]
about 15% | CCNC(=O)[C@@H]1CCCN1C(=O)[C@H](CCCNC(=N)N)NC(=O)[C@H](CC(C)C)NC(=O)[C@@H](CC(C)C)NC(=O)[C@H](Cc1ccc(O)cc1)NC(=O)[C@H](CO)NC(=O)[C@H](Cc1c[nH]c2ccccc12)NC(=O)[C@H](Cc1c[nH]cn1)NC(=O)[C@@H]1CCC(=O)N1 [leuprolide acetate] | 
 | insulin: recombinant human insulin entrapped in DPPC/DPPG/Chol 50:10:40 liposomes | 50-70%
